Test results as given in publication PMC7279002, “Novel 3′-Substituted-1′,2′,4′-Oxadiazole Derivatives of 18βH-Glycyrrhetinic Acid and Their O-Acylated Amidoximes: Synthesis and Evaluation of Antitumor and Anti-Inflammatory Potential In Vitro and In Vivo” (International Journal of Molecular Sciences, 2020).

Columns and labels:
[1] = tested on: HeLa cells; test: Apoptosis assay by flow cytometry (annexin V-FITC/PI); type: cell-based, human; conditions: 48 h
Protocol: HeLa cells were seeded in 24-well plates at density of 5 × 10^4 cells per well and incubated under standard conditions for 24 h. Next, the cells were treated by compound 5f at 7 or 10 µM for a subsequent 48 h, followed by dissociation of cell monolayers into single cells by TrypLE Express (Gibco, Taastrup, Denmark) - and washing with cold PBS. Thereafter, cells were resuspended in binding buffer at concentration of 10^6 cells/mL. After double staining with Annexin V-FITC and propidium iodide (PI) from an Annexin V-FITC Apoptosis Detection Kit (Millipore, Bedford, MA, USA), cells were analyzed using a NovoCyte Flow Cytometer (ACEA Biosciences Inc., San Diego, CA, USA). For each sample, 10,000 events were acquired.

[2] = tested on: HeLa cells; test: Cell motility by xCelligence (CIM-plate); type: cell-based, human; conditions: 0.5 µM, 48 h, nontoxic concentration
Protocol: HeLa cells were seeded in tetraplicate at 2 × 10^4 cells per well in the upper chamber of CIM-plates, in the presence or absence of 5f at 0.5 µM. To stimulate cell migration, the lower chamber of the CIM-plate contained 10% FBS as chemoattractant. The cell index (electrical impedance) was monitored by the Real-Time Cell Analyzer Dual Plates (RTCA DP) xCelligence System (ACEA Biosciences, San Diego, CA, USA) every 1 h for 48 h.

[3] = tested on: HeLa cells; test: Colony-forming assay; type: cell-based, human; conditions: 14 days
Protocol: HeLa cells were seeded in 96-well plates in tetraplicates at a density of 100 cells/well and treated by 5f (0.25, 0.5 µM) for 14 days under standard conditions. Then cell colonies were fixed with 4% paraformaldehyde, stained with crystal violet dye (0.1% w/v), and photographed using a Vilber Lourmat transilluminator (Marne La Vallee, France). The percentage of area covered by cell colonies was calculated using a ColonyArea ImageJ plugin [91].

[4] = tested on: human duodenal carcinoma HuTu-80; test: MTT cytotoxicity assay, 48 h; type: cell-based
Summary of the method: (§1)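 Cells were seeded at 10^4 per well, grown 24 h, then exposed to derivatives (0.5–50 µM, DMSO vehicle) for 48 h at 37 °C, 5% CO2 in DMEM/10% FBS. Viability was read by MTT (0.5 mg/mL final, 2 h; A570/620). IC50 was the concentration reducing A570 to 50% of control, from dose–response curves.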

[5] = tested on: human cervical carcinoma KB-3-1; test: MTT cytotoxicity assay, 48 h; type: cell-based
Summary of the method: as §1

[6] = tested on: nontransformed human fibroblasts hFF3; test: MTT cytotoxicity assay, 48 h; type: cell-based; conditions: Homo sapiens, HFF-3, read-out: IC50, µM Fibroblast hFF3
Summary of the method: as §1

[7] = tested on: murine melanoma B16; test: MTT cytotoxicity assay, 48 h; type: cell-based
Summary of the method: as §1

[8] = tested on: human cervical carcinoma HeLa; test: MTT cytotoxicity assay, 48 h; type: cell-based
Summary of the method: as §1

[9] = tested on: human lung adenocarcinoma A549; test: MTT cytotoxicity assay, 48 h; type: cell-based; conditions: Homo sapiens, A549; MTT, 48 h
Summary of the method: as §1

CC1(C)C2CC[C@]3(C)C(C(=O)C=C4[C@@H]5C[C@@](C)(c6nc(-c7ccccn7)no6)CC[C@]5(C)CC[C@]43C)[C@@]2(C)CC[C@@H]1O (stereo partly drawn) [Compound 5f, 30-nor-3β-hydroxy-11-oxo-20-(3′-(pyridin-2′′-yl)-1′,2′,4′-oxadiazol-5′-yl)-18βH-olean-12-en]
early apoptotic cells (quadrant Q4-4) ([1]; 7 µM): 12.5%
late apoptotic cells (quadrant Q4-2) ([1]; 7 µM): 60.7%
early apoptotic cells (quadrant Q4-4) ([1]; 10 µM): 8.1%
late apoptotic cells (quadrant Q4-2) ([1]; 10 µM): 66.5%
necrotic cells (quadrant Q4-1) ([1]; 10 µM): 14.2%
effect on motility of HeLa cells [2]: statistically significant suppressed the motility of HeLa cells
suppression of colony formation compared to the control ([3]; 0.5 µM): three-fold
effect on clonogenic characteristics ([3]; lower concentration (0.25 µM)): had no effect on the clonogenic characteristics of HeLa cells
IC50 ([4]; Homo sapiens, HuTu80, MTT, 48 h, read-out: IC50, µM Duodenum HuTu-80): 3.8 ± 0.3 µM
Selectivity index: HuTu-80 ([4]; IC50 in hFF3 / IC50 in HuTu-80): > 13.2
IC50 ([5]; Homo sapiens, KB 3-1, MTT, 48 h, read-out: IC50, µM Cervix KB-3-1): 4.7 ± 0.1 µM
Selectivity index: KB-3-1 ([5]; IC50 in hFF3 / IC50 in KB-3-1): > 10.6
IC50 [6]: > 50 µM
Selectivity index: B16 ([7]; IC50 in hFF3 / IC50 in B16): > 5.3
IC50 ([7]; Mus musculus, MTT, 48 h): 9.4 ± 0.4 µM
IC50 ([8]; Homo sapiens, HeLa, MTT, 48 h, read-out: IC50, µM Cervix HeLa): 3.6 ± 0.5 µM
Selectivity index: HeLa ([8]; IC50 in hFF3 / IC50 in HeLa): > 13.9
IC50 [9]: > 50 µM
